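Five concentrations, 48 hours, 96-well plates. Here, GI50 denotes the concentration required for 50% inhibition of growth.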 The source made the active and inactive calls. Rule as the data show it: active = GI50 up to about 1.1 µM and inactive = higher.
Key:
Experiment in all cases: DTP human tumour cell line panel, 48 h
U-251 = system: U-251
SNB-19 = system: SNB-19
K562 = system: K562
RXF 393 = system: RXF 393
SNB-78 = system: SNB-78
OVCAR-5 = system: OVCAR-5
SF-539 = system: SF-539
SK-OV-3 = system: SK-OV-3
UACC-257 = system: UACC-257
A498 = system: A498
LXFL 529 = system: LXFL 529
HOP-62 = system: HOP-62
RPMI-8226 = system: RPMI-8226
UO-31 = system: UO-31
LOX IMVI = system: LOX IMVI
HL-60 = system: HL-60
MOLT-4 = system: MOLT-4
SK-MEL-2 = system: SK-MEL-2
CCRF-CEM = system: CCRF-CEM
TK-10 = system: TK-10
NCI-H23 = system: NCI-H23
Malme-3M = system: Malme-3M
HOP-18 = system: HOP-18
OVCAR-3 = system: OVCAR-3
UACC-62 = system: UACC-62
DLD-1 = system: DLD-1
DMS-114 = system: DMS-114
HCT-15 = system: HCT-15
NCI-H226 = system: NCI-H226
EKVX = system: EKVX
HCT-116 = system: HCT-116
SNB-75 = system: SNB-75
OVCAR-8 = system: OVCAR-8
KM12 = system: KM12
OVCAR-4 = system: OVCAR-4
SW-620 = system: SW-620
786-0 = system: 786-0
NCI-H522 = system: NCI-H522
ACHN = system: ACHN
NCI-H460 = system: NCI-H460
SN12C = system: SN12C
M19-MEL = system: M19-MEL
SF-268 = system: SF-268
COLO 205 = system: COLO 205
HT-29 = system: HT-29
M14 = system: M14
A549 = system: A549
HCC 2998 = system: HCC 2998
SF-295 = system: SF-295
KM-20L2 = system: KM-20L2
SK-MEL-28 = system: SK-MEL-28
CAKI-1 = system: CAKI-1
IGROV-1 = system: IGROV-1
SK-MEL-5 = system: SK-MEL-5
SR = system: SR
XF498 = system: XF498
HOP-92 = system: HOP-92
DMS-273 = system: DMS-273

For `O=C1Nc2ccccc2/C1=N/NC(=O)c1ccccc1O`, the GI50 (U-251) was 23.2 µM (inactive), the GI50 (SNB-19) was 62.2 µM (inactive) and the GI50 (K562) was 40.9 µM (inactive). For the same compound, the GI50 (RXF 393) was 16.6 µM (inactive), the GI50 (SNB-78) was 99.8 µM (inactive) and the GI50 (OVCAR-5) was > 100 µM (inactive). For the same compound, the GI50 (SF-539) was 41.4 µM (inactive), the GI50 (SK-OV-3) was 12.1 µM (inactive) and the GI50 (UACC-257) was 44 µM (inactive). The GI50 (A498) was 23.5 µM (inactive), the GI50 (LXFL 529) was 41.3 µM (inactive) and the GI50 (HOP-62) was 57.3 µM (inactive). For the same compound, the GI50 (RPMI-8226) was 56.5 µM (inactive), the GI50 (UO-31) was 28.2 µM (inactive) and the GI50 (LOX IMVI) was 48.4 µM (inactive). The GI50 (HL-60) was 27.7 µM (inactive), the GI50 (MOLT-4) was 29 µM (inactive) and the GI50 (SK-MEL-2) was 23 µM (inactive). For the same compound, the GI50 (CCRF-CEM) was 33.4 µM (inactive), the GI50 (TK-10) was 65.9 µM (inactive) and the GI50 (NCI-H23) was 24.5 µM (inactive). For the same compound, the GI50 (Malme-3M) was 35.1 µM (inactive), the GI50 (HOP-18) was 56 µM (inactive) and the GI50 (OVCAR-3) was 85.3 µM (inactive). For the same compound, the GI50 (UACC-62) was 36.1 µM (inactive), the GI50 (DLD-1) was 29.3 µM (inactive) and the GI50 (DMS-114) was 43.4 µM (inactive). The GI50 (HCT-15) was 32.6 µM, the GI50 (NCI-H226) was 33.2 µM (inactive) and the GI50 (EKVX) was 68.5 µM (inactive). The GI50 (HCT-116) was 36.8 µM (inactive), the GI50 (SNB-75) was 19.8 µM (inactive) and the GI50 (OVCAR-8) was 44.5 µM (inactive). For the same compound, the GI50 (KM12) was 33.7 µM (inactive), the GI50 (OVCAR-4) was 75.5 µM (inactive) and the GI50 (SW-620) was 46.8 µM (inactive). For the same compound, the GI50 (786-0) was 53.3 µM (inactive), the GI50 (NCI-H522) was 39.7 µM (inactive) and the GI50 (ACHN) was 21.8 µM (inactive). For the same compound, the GI50 (NCI-H460) was 34.8 µM (inactive), the GI50 (SN12C) was 35.2 µM (inactive) and the GI50 (M19-MEL) was 53 µM (inactive). The GI50 (SF-268) was 44.4 µM (inactive), the GI50 (COLO 205) was > 100 µM (inactive) and the GI50 (HT-29) was 82.2 µM (inactive). For the same compound, the GI50 (M14) was 50.1 µM (inactive), the GI50 (A549) was 55.3 µM (inactive) and the GI50 (HCC 2998) was 23 µM (inactive). For the same compound, the GI50 (SF-295) was 27.9 µM (inactive), the GI50 (KM-20L2) was > 100 µM (inactive) and the GI50 (SK-MEL-28) was 60.5 µM (inactive).
With `C/C(=C1/N=C(c2cc([N+](=O)[O-])ccc2Cl)N(c2ccc(Br)cc2)C1=O)c1cc2ccccc2oc1=O` the GI50 (U-251) was 48.3 µM (inactive), the GI50 (SNB-19) was 55.8 µM (inactive) and the GI50 (K562) was 34.4 µM (inactive). For the same compound, the GI50 (SNB-78) was 31.6 µM (inactive), the GI50 (OVCAR-5) was > 100 µM (inactive) and the GI50 (SF-539) was 30.1 µM (inactive). For the same compound, the GI50 (SK-OV-3) was 90.4 µM (inactive), the GI50 (UACC-257) was 45.8 µM (inactive) and the GI50 (A498) was 20.7 µM (inactive). The GI50 (LXFL 529) was 6.78 µM (inactive), the GI50 (HOP-62) was > 100 µM (inactive) and the GI50 (RPMI-8226) was 26.6 µM (inactive). The GI50 (UO-31) was 23.7 µM (inactive), the GI50 (LOX IMVI) was 17.3 µM (inactive) and the GI50 (CAKI-1) was 12.9 µM (inactive). The GI50 (HL-60) was 23.7 µM (inactive), the GI50 (MOLT-4) was 20.2 µM (inactive) and the GI50 (SK-MEL-2) was 22.6 µM (inactive). For the same compound, the GI50 (CCRF-CEM) was 16.5 µM (inactive), the GI50 (NCI-H23) was 38.3 µM (inactive) and the GI50 (Malme-3M) was 34.8 µM (inactive). The GI50 (HOP-18) was > 100 µM (inactive), the GI50 (OVCAR-3) was 49.2 µM (inactive) and the GI50 (UACC-62) was 18.2 µM (inactive). For the same compound, the GI50 (DLD-1) was 22.1 µM (inactive), the GI50 (DMS-114) was 10.1 µM (inactive) and the GI50 (HCT-15) was 8.22 µM. The GI50 (IGROV-1) was 26.1 µM (inactive), the GI50 (NCI-H226) was > 100 µM (inactive) and the GI50 (EKVX) was > 100 µM (inactive). For the same compound, the GI50 (HCT-116) was 24.5 µM (inactive), the GI50 (SNB-75) was 33.8 µM (inactive) and the GI50 (OVCAR-8) was 81.8 µM (inactive). For the same compound, the GI50 (KM12) was 21.8 µM (inactive), the GI50 (OVCAR-4) was 18.3 µM (inactive) and the GI50 (SW-620) was 34.2 µM (inactive). The GI50 (SK-MEL-5) was 23.4 µM (inactive), the GI50 (NCI-H522) was 10.6 µM (inactive) and the GI50 (ACHN) was 6 µM (inactive). For the same compound, the GI50 (NCI-H460) was 26.3 µM (inactive), the GI50 (SN12C) was 20.3 µM (inactive) and the GI50 (M19-MEL) was 5.89 µM (inactive). The GI50 (SF-268) was 39.6 µM (inactive), the GI50 (COLO 205) was 3.38 µM (inactive) and the GI50 (HT-29) was 42.1 µM (inactive). For the same compound, the GI50 (M14) was 25.9 µM (inactive), the GI50 (A549) was 25.9 µM (inactive) and the GI50 (HCC 2998) was 24 µM (inactive). The GI50 (SF-295) was 80.5 µM (inactive), the GI50 (SR) was 14.9 µM (inactive) and the GI50 (KM-20L2) was 17.6 µM (inactive). The GI50 (SK-MEL-28) was 60.8 µM (inactive).
In the case of `O=C1OC2(OC2c2ccc(Cl)cc2)c2ccccc21` (stereo unspecified), the GI50 (XF498) is reported as 43.4 µM (inactive), the GI50 (SNB-19) is reported as 73.8 µM (inactive) and the GI50 (K562) is reported as 53.1 µM (inactive). For the same compound, the GI50 (RXF 393) was 62.7 µM (inactive), the GI50 (OVCAR-5) was > 100 µM (inactive) and the GI50 (SF-539) was > 100 µM (inactive). The GI50 (SK-OV-3) was > 100 µM (inactive), the GI50 (LXFL 529) was 22.7 µM (inactive) and the GI50 (HOP-62) was 20.4 µM (inactive). For the same compound, the GI50 (RPMI-8226) was 89.1 µM (inactive), the GI50 (UO-31) was > 100 µM (inactive) and the GI50 (LOX IMVI) was 17.8 µM (inactive). For the same compound, the GI50 (CAKI-1) was > 100 µM (inactive), the GI50 (HOP-92) was > 100 µM (inactive) and the GI50 (HL-60) was 34.3 µM (inactive). For the same compound, the GI50 (MOLT-4) was > 100 µM (inactive), the GI50 (SK-MEL-2) was > 100 µM (inactive) and the GI50 (CCRF-CEM) was 51.5 µM (inactive). For the same compound, the GI50 (TK-10) was > 100 µM (inactive), the GI50 (Malme-3M) was > 100 µM (inactive) and the GI50 (OVCAR-3) was > 100 µM (inactive). The GI50 (UACC-62) was > 100 µM (inactive), the GI50 (DLD-1) was > 100 µM (inactive) and the GI50 (DMS-273) was > 100 µM (inactive). The GI50 (DMS-114) was 64.7 µM (inactive), the GI50 (HCT-15) was over 100 µM and the GI50 (IGROV-1) was > 100 µM (inactive). For the same compound, the GI50 (NCI-H226) was > 100 µM (inactive), the GI50 (EKVX) was > 100 µM (inactive) and the GI50 (HCT-116) was > 100 µM (inactive). The GI50 (SNB-75) was 48.1 µM (inactive), the GI50 (OVCAR-8) was > 100 µM (inactive) and the GI50 (KM12) was 71.1 µM (inactive). For the same compound, the GI50 (OVCAR-4) was 42.6 µM (inactive), the GI50 (SW-620) was > 100 µM (inactive) and the GI50 (NCI-H522) was 31.9 µM (inactive). For the same compound, the GI50 (ACHN) was 94.2 µM (inactive), the GI50 (NCI-H460) was > 100 µM (inactive) and the GI50 (SN12C) was > 100 µM (inactive). The GI50 (M19-MEL) was > 100 µM (inactive), the GI50 (SF-268) was > 100 µM (inactive) and the GI50 (COLO 205) was > 100 µM (inactive). The GI50 (HT-29) was > 100 µM (inactive), the GI50 (M14) was > 100 µM (inactive) and the GI50 (A549) was > 100 µM (inactive). For the same compound, the GI50 (HCC 2998) was > 100 µM (inactive), the GI50 (SF-295) was 85.7 µM (inactive) and the GI50 (SR) was > 100 µM (inactive). The GI50 (KM-20L2) was > 100 µM (inactive) and the GI50 (SK-MEL-28) was > 100 µM (inactive).
With `CC[C@@]1(O)C[C@H](OC2CC(N(C)C)C(OC3CC(O)C(OC4CCC(=O)C(C)O4)C(C)O3)C(C)O2)c2c(cc3c(c2O)C(=O)c2c(O)cccc2C3=O)[C@H]1C(=O)OC` (stereo partly specified) the GI50 (LXFL 529) was 0.00904 µM (active), the GI50 (RPMI-8226) was 0.0278 µM (active) and the GI50 (HL-60) was 0.0317 µM (active). For the same compound, the GI50 (CCRF-CEM) was 0.0184 µM (active), the GI50 (HOP-18) was 0.0736 µM (active) and the GI50 (DLD-1) was 0.0327 µM (active). For the same compound, the GI50 (HT-29) was 0.0147 µM (active) and the GI50 (KM-20L2) was 0.0128 µM (active).

From ChEMBL document CHEMBL1201862, “PubChem BioAssay data set” (2004)
